The results in this text go back to patent US9822068B2, “Inhibitors of fatty acid amide hydrolase (FAAH) enzyme with improved oral bioavailability and their use as medicaments” (THE REGENTS OF THE UNIVERSITY OF CALIFORNIA, priority 2014, dated 2017).

The structures appear in SMILES notation. Values after ≈ are worked out from the molar mass of the structure shown. Like-named read-outs stand apart in the source and are kept apart here.

Data set [1] addresses human FAAH-1 (Homo sapiens (Human), UniProt O00519). The experiment in a line: In vitro human FAAH fluorescent assay. In kind it is biochemical. The note with it: human FAAH-1 membrane preparation from HEK-293, 50 min pre-incubation at 37° C.; read-out: h-FAAH IC50. The method, then:
In Vitro Human FAAH Fluorescent Assay
Human recombinant FAAH was obtained from a HEK-293 cell line stably overexpressing human FAAH-1 enzyme. Cells were grown in Dulbecco's Modified Eagle Medium (DMEM) medium containing 10% FBS, 1% pen/strep, 1% glutamine and 500 μg/mL G418. To obtain membrane preparation cells were scraped off with cold PBS and collected by centrifugation (500×g, 10 min, 4° C.); the cell pellet was re-suspended in 20 mM Tris-HCl pH 7.4, 0.32M sucrose, disrupted by sonication (10 pulses, 5 times) and centrifuged (800×g, 15 min, 4° C.); the collected supernatant was centrifuged at 105,000×g for 1 h at 4° C. and the pellet was re-suspended in PBS.
The fluorescent assay to measure FAAH activity was performed in 96 wells black plates: 2.5 μg of human FAAH-1 membrane preparation were pre-incubated for 50 min at 37° C., in 180 µL of assay buffer (50 mM TrisHCl pH 7.4, 0.05% Fatty acid-free-BSA) with 10 μL of inhibitor (at appropriate concentration in DMSO) or 10 μL DMSO to measure FAAH total activity. The background (no activity) samples were prepared using 180 μL of assay buffer without human FAAH-1 and 10 μL of DMSO. The reaction was then started by the addition of 10 μL of a 40 μM substrate solution (N. 10005098, Cayman Chemical) dissolved in ethanol, and used at a final concentration of 2 μM. The reaction was carried out for 30 min at 37° C. and fluorescence was measured with a Tecan Infinite M200 nanoquant plate reader (excitation wavelength 350 nm/emission wavelength 460 nm).
(§1) Concentrations causing half-maximal inhibition of FAAH, IC50 values, were determined by non-linear regression analysis of the Log [concentration]/response curves generated with mean replicate values using a four parameter Hill equation curve fitting with GraphPad Prism 5 (GraphPad Software Inc., CA—USA).

Data set [2] in a line: Pharmacokinetic experiment in cannulated Sprague-Dawley rats (PO and IV). In kind it is in vivo. The conditions noted are these: plasma, rat; for bioavailability: PO 10 mg/kg vs IV 3 mg/kg, read-out: Oral bioavailability (F %). The method, then:
Pharmacokinetic Experiment and Analysis
Compounds were administered orally (PO) and intravenously (IV) to cannulated Sprague-Dawley rats at 10 and 3 mg/kg, respectively. Vehicle was: PEG400/Tween 80/Saline solution at 10/10/80 (% in volume), respectively. Three animals per dose were treated. Blood samples at 0, 15, 30, 60, 120, 240, 480 and 1440 min after administration were collected for PO arm. Blood samples at 0, 5, 15, 30, 60, 120 and 240 min after administration were collected for IV arm. Plasma was separated from blood by centrifugation for 15 min at 3500 rpm a 4° C., collected in a Eppendorf tube and frozen (−80° C.). Control animals treated with vehicle only were also included in the experimental protocol.
Preparation of Samples, Standard Curve and QC Samples for UPLC-MS Analysis
Samples were thawed in an ice bath and after a short centrifugation transferred (50 μL) into a 96-deepwell plate and added with 150 μL of acetonitrile spiked with 200 nM Warfarin (the Internal Standard, I.S.). After agitation (3 min) the plate was centrifuged at 3000 g for 10 min at 4° C. 80 μL of supernatant was then transferred in a 96-well plate and added with 80 μL of water. Standard compound was spiked in neat solvent (PBS pH 7.4 added with 10% acetonitrile) to prepare a calibration curve over the 1 nM-10 μM range. Three quality controls (QCs) samples were also prepared spiking the compound in blank rat plasma to final 20, 200 and 2000 nM concentrations. Calibrators and QCs were crashed with acetonitrile spiked with the I.S. as described for the plasma samples. Dosing solutions, previously diluted 2000 fold in the neat solvent were also included in the samples and tested.
Compounds plasma levels were monitored on a Xevo TQ UPLC-MS/MS system (Waters, Milford USA), using the calibration curve and the internal standard (Warfarin). Chromatography was carried out on a Acquity BEH C18 column (2.1×50 mmID, 1.7 m particle size, Waters, Milford USA). Flow rate was 0.5 mL/min. The mobile phase was (A) H2O/0.1% formic acid; (B) MeCN/0.1% formic acid. A linear gradient was applied from 5 to 100% B in 2 min. 3 μL of each sample were loaded on column. MS parameters and multiple reaction monitoring (MRM) transitions were carefully tuned for each compound. Plasma levels data were analyzed using PKSolutions excel application (Summit Research Service, USA) to derive the most important pharmacokinetic parameters.
The oral bioavailability (F %) data, and the Area Under the Curve (AUC) data (ng×min/mL) corresponding to the IV (3 mg/kg) and PO (10 mg/kg) dose of selected compounds described in the Examples are reported in Table 3. Their F % data are in the range from 35 to 87.

The target in data set [3] is Rat FAAH (Rattus norvegicus (Rat), UniProt P97612). The experiment in a line: In vitro rat FAAH radiometric assay. The conditions noted are these: rat brain homogenate, 10 min pre-incubation at 37° C.; read-out: r-FAAH IC50. It is filed as biochemical. On the procedure:
In Vitro Rat FAAH Radiometric Assay
Rat FAAH was prepared from male Sprague Dawley rat brains, homogenized in a potter in 20 mM of Tris HCl pH 7.4, 0.32 M sucrose.
The radiometric assay used to measure FAAH activity was performed in Eppendorf tubes: 50 μg of total rat brain homogenate were pre-incubated in 445.5 μL of assay buffer (50 mM Tris-HCl pH 7.4, 0.05% Fatty acid-free-bovine serum albumin (BSA)) with 4.5 μL of inhibitor (at appropriate concentration in DMSO) or DMSO alone (to measure FAAH total activity) for 10 min at 37° C. The blank (no activity control) was prepared using 445.5 μL of assay buffer and 4.5 μL of DMSO without the 50 μg of total rat brain homogenate.
After 10 min of pre-incubation with test compounds, the reaction was started by adding of 50 μL of substrate and incubating for 30 min at 37° C. The substrate was prepared in assay buffer in order to achieve the final concentration of 1 μM arachidonoyl ethanolamide (Cayman Chemical N. 90050) and 0.6 nM anandamide [ethanolamine-1-^3H] (American Radiolabeled Chemicals Inc, ART. 0626, Conc. 1 mCi/mL, S.A. 60 Ci/mmol). The reaction was stopped by adding cold 1:1 CHCl3/MeOH. After 10 min of centrifugation (845×g at 4° C.) 600 μL of aqueous phase were transferred into scintillation vials previously filled with 3 mL of scintillation fluid (Ultima Gold™, Perkin Elmer Inc., Cat. 6013329). Radioactivity was measured by liquid scintillation counting (MicroBeta2 LumiJET Perkin Elmer Inc.).
as §1

Data set [4] is described as follows: Aqueous kinetic solubility assay. It is filed as physicochemical. The conditions noted are these: phosphate buffered saline, aqueous buffer, kinetic from dmso stock, PBS pH 7.4, target 250 μM, 2.5% DMSO, 25° C. On the procedure:
Aqueous Kinetic Solubility Assay
The aqueous kinetic solubility was determined from a 10 mM DMSO stock solution of test compound in Phosphate Buffered Saline (PBS) at pH 7.4.
The study was performed by incubation of an aliquot of 10 mM DMSO stock solution in PBS (pH 7.4) at a target concentration of 250 μM resulting in a final concentration of 2.5% DMSO. The incubation was carried out under shaking at 25° C. for 24 h followed by centrifugation. The supernatant was analyzed by UPLC/MS for the quantification of dissolved compound by UV at a specific wavelength (215 nm).
The aqueous kinetic solubility (in μM) was calculated by dividing the peak area of the supernatant by the peak area of the test compound reference and further multiplied by the concentration of the test compound reference and dilution factor.
The UPLC/MS analyses were performed on a Waters ACQUITY UPLC/MS system consisting of a SQD (Single Quadrupole Detector) Mass Spectrometer equipped with an Electrospray Ionization interface and a Photodiode Array Detector. The PDA range was 210-400 nm. The analyses were run on an ACQUITY UPLC BEH C18 column (50×2.1 mmID, particle size 1.7 m) with a VanGuard BEH C18 pre-column (5×2.1 mmID, particle size 1.7 μm). The mobile phase was 10 mM NH4OAc in H2O at pH 5 adjusted with AcOH (A) and 10 mM NH4OAc in MeCN—H2O (95:5) at pH 5 (B). Electrospray ionization in positive and negative mode was applied in the mass scan range 100-500 Da.

Where [5] appears, read: IV, 3 mg/kg, read-out: AUC IV (3 mg/kg) (converted).
[6] abbreviates: PO, 10 mg/kg, read-out: AUC PO (10 mg/kg) (converted).

Sequence of human FAAH-1 (O00519 whole entry): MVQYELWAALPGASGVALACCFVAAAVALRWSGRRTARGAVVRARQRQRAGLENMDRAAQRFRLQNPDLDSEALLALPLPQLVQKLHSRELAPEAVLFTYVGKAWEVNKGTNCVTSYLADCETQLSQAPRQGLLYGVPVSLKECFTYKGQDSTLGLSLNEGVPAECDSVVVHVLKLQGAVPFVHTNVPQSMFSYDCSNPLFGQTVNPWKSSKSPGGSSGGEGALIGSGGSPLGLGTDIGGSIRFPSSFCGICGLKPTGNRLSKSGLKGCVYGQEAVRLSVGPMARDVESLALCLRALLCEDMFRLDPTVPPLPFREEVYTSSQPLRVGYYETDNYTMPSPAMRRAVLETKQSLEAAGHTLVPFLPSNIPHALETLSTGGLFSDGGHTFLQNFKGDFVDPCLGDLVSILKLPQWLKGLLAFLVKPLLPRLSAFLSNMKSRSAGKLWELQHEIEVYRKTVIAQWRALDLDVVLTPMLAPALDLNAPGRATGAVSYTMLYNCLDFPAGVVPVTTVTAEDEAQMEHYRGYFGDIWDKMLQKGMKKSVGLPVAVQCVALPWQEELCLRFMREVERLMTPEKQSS
Sequence of Rat FAAH (P97612 whole entry): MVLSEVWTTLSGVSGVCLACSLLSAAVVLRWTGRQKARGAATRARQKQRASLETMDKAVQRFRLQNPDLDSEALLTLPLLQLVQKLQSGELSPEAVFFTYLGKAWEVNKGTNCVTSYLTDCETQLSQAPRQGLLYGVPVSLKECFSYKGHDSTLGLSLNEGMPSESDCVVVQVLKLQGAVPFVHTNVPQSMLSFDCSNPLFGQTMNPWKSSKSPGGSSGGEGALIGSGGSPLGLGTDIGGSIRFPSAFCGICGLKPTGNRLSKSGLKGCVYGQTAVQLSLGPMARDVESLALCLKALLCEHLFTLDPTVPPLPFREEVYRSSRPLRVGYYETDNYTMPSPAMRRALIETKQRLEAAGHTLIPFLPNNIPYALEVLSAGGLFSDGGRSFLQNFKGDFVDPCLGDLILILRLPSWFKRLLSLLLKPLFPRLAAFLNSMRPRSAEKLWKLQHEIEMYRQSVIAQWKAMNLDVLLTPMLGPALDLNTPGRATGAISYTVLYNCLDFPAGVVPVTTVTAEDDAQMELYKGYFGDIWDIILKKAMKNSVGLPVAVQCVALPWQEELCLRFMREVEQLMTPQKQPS

One may read the IC50 as the concentration at which inhibition is half-maximal. As usually defined, the bioavailability is dose-corrected exposure relative to a reference, in per cent. What is called kinetic solubility is solubility judged after dilution from a stock solution rather than from solid. On to `CNC(=O)c1cccc(-c2cc(OC(=O)NC3CCCCC3)ccc2F)c1` [Example 1, [4-fluoro-3-[3-(methylcarbamoyl)phenyl]phenyl]N-cyclohexylcarbamate], for which the IC50 was found to be 12 nM in data set [1] and 1.4 nM in data set [3]. Besides, in data set [2], the bioavailability turned out to be 87%. In addition, the AUC in data set [2] (setting [5]) was 1280 ng·h/mL; in data set [2] (setting [6]), 3700 ng·h/mL. The molecule further displayed a kinetic solubility at 24 h in data set [4] of 28 µM (≈ 10.4 µg/mL).

As for `NS(=O)(=O)c1cccc(-c2cc(OC(=O)NC3CCCCC3)ccc2F)c1` [Example 2, [4-fluoro-3-(3-sulfamoylphenyl)phenyl] N-cyclohexylcarbamate], the half-maximal inhibitory concentration (IC50) in data set [1] was 11 nM; in data set [3], 0.7 nM. Also, the bioavailability in data set [2] was 35%. Also, the AUC in data set [2] (setting [5]) was 746 ng·h/mL; in data set [2] (setting [6]), 867 ng·h/mL. The solubility (kinetic) at 24 h in data set [4] is 28 µM (≈ 11 µg/mL).

With `CNC(=O)c1cccc(-c2cc(OC(=O)NC3CCCC3)ccc2F)c1` [Example 4, [4-fluoro-3-[3-(methylcarbamoyl)phenyl]phenyl] N-cyclopentylcarbamate], the concentration for half-maximal inhibition (IC50) in data set [1] worked out at 2.9 nM; in data set [3], 3.9 nM. This molecule also displayed a kinetic solubility at 24 h in data set [4] of 96 µM (≈ 34.2 µg/mL).

Turning to `NC(=O)c1cccc(-c2cc(OC(=O)NC3CCCC3)ccc2F)c1` [Example 5, [3-(3-carbamoylphenyl)-4-fluoro-phenyl] N-cyclopentylcarbamate], the half-maximal inhibitory concentration (IC50) worked out at 0.84 nM in data set [1] and 2.9 nM in data set [3].

With `CNC(=O)c1cccc(-c2cc(OC(=O)NC3CCC3)ccc2F)c1` [Example 6, [4-fluoro-3-[3-(methylcarbamoyl)phenyl]phenyl] N-cyclobutylcarbamate], the values for the half-inhibitory concentration (IC50) in data set [1] and in data set [3] were 6.6 nM and 5.1 nM, respectively. Further, the solubility (kinetic) at 24 h in data set [4] was determined as 183 µM (≈ 62.7 µg/mL).

For the molecule `CS(=O)(=O)c1cccc(-c2cc(OC(=O)NC3CCCCC3)ccc2F)c1` [Example 7, [4-Fluoro-3-(3-methylsulfonylphenyl)phenyl] N-cyclohexylcarbamate], the half-inhibitory concentration (IC50) amounted to 4.9 nM in data set [1] and 8.9 nM in data set [3].

For `NS(=O)(=O)c1cccc(-c2cc(OC(=O)NC3CCCCC3)ccc2OC(F)F)c1` [Example 10, [4-(difluoromethoxy)-3-(3-sulfamoylphenyl)phenyl] N-cyclohexylcarbamate], the 50% inhibitory concentration (IC50) was determined as 9.2 nM in data set [1] and 8.2 nM in data set [3].

In the case of `CS(=O)(=O)c1cccc(-c2cc(OC(=O)NC3CCCCC3)ccc2OC(F)F)c1` [Example 11, [4-(difluoromethoxy)-3-(3-methylsulfonylphenyl)phenyl] N-cyclohexylcarbamate], the figures for the 50% inhibitory concentration (IC50) in data set [1] and in data set [3] were 6.5 nM and 2.9 nM, respectively. Further, in data set [4], the kinetic solubility at 24 h turned out to be 12 µM (≈ 5.27 µg/mL).

With `NC(=O)c1cccc(-c2cc(F)cc(OC(=O)NC3CCCCC3)c2)c1` [Example 12, [3-(3-Carbamoylphenyl)-5-fluoro-phenyl] N-cyclohexylcarbamate], the values for the IC50 in data set [1] and in data set [3] were 0.87 nM and 0.23 nM, respectively.

Turning to `NC(=O)c1cccc(-c2cccc(OC(=O)NC3CCCCC3)c2F)c1` [Example 13, [3-(3-Carbamoylphenyl)-2-Fluoro-Phenyl] N-Cyclohexylcarbamate], the values for the IC50 in data set [1] and in data set [3] were 0.89 nM and 1.9 nM, respectively.

On to `CNC(=O)c1cccc(-c2cccc(OC(=O)NC3CCCCC3)c2)c1` [[drawing 127] comparison compound, reference compound], for which the bioavailability in data set [2] came out at 30%. In addition, the AUC was 1520 ng·h/mL in data set [2] (setting [5]) and 1500 ng·h/mL in data set [2] (setting [6]). The same molecule displayed a kinetic solubility at 24 h in data set [4] of 18 µM (≈ 6.34 µg/mL).

Turning to `NS(=O)(=O)c1cccc(-c2cccc(OC(=O)NC3CCCCC3)c2)c1` [[drawing 129] comparison compound, reference compound], the bioavailability in data set [2] came to 21%. Moreover, the AUC in data set [2] (setting [5]) was 725 ng·h/mL; in data set [2] (setting [6]) it was 502 ng·h/mL. Besides, the solubility (kinetic) at 24 h in data set [4] amounted to 7 µM (≈ 2.62 µg/mL).

Take `NC(=O)c1cccc(-c2cccc(OC(=O)NC3CCC3)c2)c1` [[drawing 131] comparison compound, reference compound]: the bioavailability in data set [2] came out at 39%. Besides, the AUC in data set [2] (setting [5]) was 891 ng·h/mL; in data set [2] (setting [6]) it was 1160 ng·h/mL. The solubility (kinetic) at 24 h in data set [4] is 6 µM (≈ 1.86 µg/mL).

As for `NC(=O)c1cccc(-c2cccc(OC(=O)NC3CCCCC3)c2)c1` [[drawing 135] comparison compound, reference compound], the bioavailability in data set [2] was found to be 5%. Also, the AUC in data set [2] (setting [5]) was 2560 ng·h/mL; in data set [2] (setting [6]) it was 446 ng·h/mL. This molecule had a solubility (kinetic) at 24 h in data set [4] of 1 µM (≈ 0.338 µg/mL).
